Assay results taken from publication PMC10403534, “XCP1 cleaves Pathogenesis-related protein 1 into CAPE9 for systemic immunity in Arabidopsis” (Nature Communications, 2023).

Biological target: T1, XCP1-His (Arabidopsis thaliana, UniProt O65493)
T1 construct: C-terminal 6xHis tag kept; from Arabidopsis cDNA; transiently expressed in Nicotiana benthamiana leaves with P19, Ni-NTA purified
Assay: inhibition of Ac-CNYD-AMC cleavage, […] h preincubation, […] h incubation
Format: biochemical
Conditions: 1 ug enzyme, 25 uM Ac-CNYD-AMC; covalent

T1 sequence (O65493 137-355): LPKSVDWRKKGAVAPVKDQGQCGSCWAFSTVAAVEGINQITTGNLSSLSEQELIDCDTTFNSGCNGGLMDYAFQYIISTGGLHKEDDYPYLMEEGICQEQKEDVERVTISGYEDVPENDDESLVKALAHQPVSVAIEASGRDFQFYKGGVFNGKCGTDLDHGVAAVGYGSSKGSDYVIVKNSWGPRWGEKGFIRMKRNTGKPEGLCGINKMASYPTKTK

CC(C)C[C@H](NC(=O)[C@H]1O[C@@H]1C(=O)O)C(=O)NCCCCNC(=N)N [E-64]
inhibition of Ac-CNYD-AMC cleavage, 1 h preincubation, 10 h incubation: CNYDase activity of purified XCP1-His was enhanced by CaCl2 and inhibited by ZnCl2 and E-64
